# pIC50: −log10 of the molar value. “Also recorded” adds a separate entry of the source. Like-named read-outs stand apart in the source and are kept apart here. Ends that are not written are not given here.
# Tests used:
# Neu1 sialidase [1] = molecular target: T1, Neu1 sialidase (Mus musculus, UniProt O35657); format: cell-based; details: for inhibition of lipopolysaccharide (LPS) induced sialidase activity: live BMC-2 macrophage cells, 1-2 mM, compared to LPS positive control; for inhibition of sialidase (Neu1) activity associated with TLR ligand treated live macrophage cells: cell surface of macrophage and dendritic cells
# T1 construct: […]; endogenous in cells; host or cells: BMC-2 macrophage cells
# Source text: Central to this process is that Neu1 and not Neu2,-3 and -4 forms a complex with TLR-2,-3 and -4 on the cell surface of naïve macrophage cells. […] Endotoxin LPS binding to TLR4 induces Neu1 with subsequent activation of NFκB and the production of nitric oxide and proinflammatory IL-6 and TNFα cytokines in primary and macrophage cell lines.
# Neu1 sialidase [2] = molecular target: T1, Neu1 sialidase; details: cited from earlier work; for inhibition of the LPS-induced sialidase activity: live BMC-2 macrophage cells
# neuraminidase 1 = molecular target: T2, neuraminidase 1 (Homo sapiens, UniProt Q99519); assay: Neu-1 activity in live PANC-1 cells stimulated with EGF; format: cell-based; details: FIG. 5; aspirin 1.6 mM-6.4 mM, 30 ng/mL EGF, 0.318 mM 4-MUNANA
# T2 construct: endogenous in cells; host or cells: PANC-1
# Method: Live PANC-1 cells were pre-treated with increasing concentrations of aspirin (1.6 mM-6.4 mM), followed by stimulation with 30 ng/mL of EGF to initiate Neu-1 activity. 0.318 mM 4-MUNANA substrate was added to quantify Neu-1 activity.
# [3] = molecular target: mammalian neuraminidase 1 (Homo sapiens, UniProt Q99519); assay: Aspirin with OP on mammalian neuraminidase 1
# [4] = tested on: SEAP gene inducible by NF-kB and AP-1 in RAW-Blue cells; assay: SEAP reporter assay in RAW-Blue cells (Example 2); format: cell-based, mouse; details: for expression of SEAP (reflective of NF-kB expression): FIG. 3A-3D, various concentrations
# Method: RAW-Blue™ cells (mouse macrophage reporter cell line, Invivogen, San Diego CA) derived from RAW 264.7 macrophages were grown in a culture medium under the selection of Zeocin™. The cells stably express a secreted embryonic alkaline phosphatase (SEAP) gene inducible by NF-kB and AP-1 transcription factors. Upon stimulation, RAW-Blue™ cells activate NF-kB and AP-1 leading to the secretion of SEAP, which is detectable and measurable using QUANTI-Blue™, a SEAP detection medium (Invivogen). Supernatants (20 uL) after 24 hr reaction from treated RawBlue cells is added to QuantiBlue reagent (180 uL), and the readout of color reaction was done after 6 hrs. QUANTI-Blue™ is a colorimetric enzyme assay developed to determine the activity of any alkaline phosphatase present in a biological sample (supernatants) and was prepared according to manufacturer's instructions. RAW-Blue™ cells are resistant to Zeocin™ and G418.
# A cell suspension of 550,000 RAW-blue cells/mL in fresh growth medium was prepared, and 180 μL of cell suspension (~100,000 cells) was added to each well of a Falcon flat-bottom 96-well plate (Becton Dickinson). After different incubation times, indicated dosages of LPS, bradykinin, angiotensin 1-7, neuropeptide FF, and S-protein alone or together with indicated dose-dependent OP were added to each well. The plates were incubated at 37° C. in a 5% CO2 incubator for 18-24 h. 180 μL of QUANTI-Blue™ solution was added to each well of a flat-bottom 96-well plate, followed by 20 μL of supernatant from stimulated RAW-blue cells. The plate was incubated for 30 min to 3 h at 37° C. and the SEAP levels were determined using a spectrophotometer at 620-655 nm. Each experiment was performed in triplicate.
# Neu1 = details: live macrophage cell lines and primary bone marrow macrophage cells from wild-type mice, not from Neu1-deficient mice; cited from earlier work
# Neu1 sialidase [5] = assay: Sialidase activity in live RAW-blue macrophage cells, 4-MUNANA substrate (Example 1); format: cell-based, mouse; details: for inhibition of sialidase activity associated with S-protein: FIG. 2B; for inhibition of sialidase activity associated with S-protein / inhibition of sialidase activity associated with S-protein (UK variant): inhibitor 200 μg/mL, 0.318 mM 4-MUNANA; for inhibition of sialidase activity associated with S-protein (UK variant): FIG. 2C
# [6] = tested on: NFκB activation, nitric oxide, IL-6 and TNFα in primary or macrophage cell lines; assay: LPS/TLR ligand induced NFκB activation, nitric oxide and pro-inflammatory cytokines in macrophage cells; format: cell-based; details: macrophage and dendritic cells
# Source text: Thus, there is evidence that the activation of Neu1 sialidase in complex with TLR-2,-3 and -4 receptors on the cell surface of macrophages is inhibited by the neuraminidase inhibitor OP. […] On the basis that Mas GPCR potentiates receptor biased-induced TLR transactivation via NMBR-Neu1-MMP9 crosstalk on the cell surface alveolar macrophages, then OP will inhibit the pro-inflammatory responses in the lungs and reduce the inflammatory process.
# [7] = tested on: NFκB activation, nitric oxide, IL-6 and TNFα in primary or macrophage cell lines; details: cited from earlier work
# [8] = cited from earlier work
# MMP3 = MMP3 (Homo sapiens, UniProt P08254); details: cited from earlier work
# MMP7 = MMP7 (Homo sapiens, UniProt P09237); details: read-out: IC50 for MMP7; cited from earlier work
# MMP1 = molecular target: T3, MMP1 (Homo sapiens, UniProt P03956); details: read-out: IC50 for MMP1; cited from earlier work
# T3 sequence (P03956 100-469): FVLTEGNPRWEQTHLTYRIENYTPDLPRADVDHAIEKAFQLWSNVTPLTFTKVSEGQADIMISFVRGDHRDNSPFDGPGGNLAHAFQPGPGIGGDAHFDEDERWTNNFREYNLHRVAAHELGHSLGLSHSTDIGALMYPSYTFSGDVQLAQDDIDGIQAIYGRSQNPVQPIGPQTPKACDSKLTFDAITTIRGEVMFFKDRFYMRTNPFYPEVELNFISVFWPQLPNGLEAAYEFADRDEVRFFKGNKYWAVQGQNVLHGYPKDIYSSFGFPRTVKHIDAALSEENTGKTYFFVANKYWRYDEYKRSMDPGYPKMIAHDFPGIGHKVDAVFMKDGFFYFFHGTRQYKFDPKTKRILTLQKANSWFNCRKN
# MMP9 = MMP9 (Homo sapiens, UniProt P14780); details: cited from earlier work
# carboxylesterase = carboxylesterase (Homo sapiens, UniProt P23141); details: previously determined; cited from earlier work
# [9] = molecular target: LPS induced sialidase activity in live BMA macrophage cells (Mus musculus, UniProt O35657); details: clopidogrel bisulfate 280 μM and 500 μM for 2 min, 5 μg/ml LPS, 400 μM OP
# MMP13 = MMP13 (Homo sapiens, UniProt P45452); details: cited from earlier work
# Neu3 sialidase = details: 2 mM, lysates from mature dendritic cells; cited from earlier work
# Neu1 sialidase [10] = details: 2 mM, lysates from mature dendritic cells; cited from earlier work
# human Neu3 sialidase = molecular target: T4, human Neu3 sialidase (Homo sapiens, UniProt Q9UQ49); details: micromolar range; cited from earlier work
# T4 sequence (Q9UQ49 1-428): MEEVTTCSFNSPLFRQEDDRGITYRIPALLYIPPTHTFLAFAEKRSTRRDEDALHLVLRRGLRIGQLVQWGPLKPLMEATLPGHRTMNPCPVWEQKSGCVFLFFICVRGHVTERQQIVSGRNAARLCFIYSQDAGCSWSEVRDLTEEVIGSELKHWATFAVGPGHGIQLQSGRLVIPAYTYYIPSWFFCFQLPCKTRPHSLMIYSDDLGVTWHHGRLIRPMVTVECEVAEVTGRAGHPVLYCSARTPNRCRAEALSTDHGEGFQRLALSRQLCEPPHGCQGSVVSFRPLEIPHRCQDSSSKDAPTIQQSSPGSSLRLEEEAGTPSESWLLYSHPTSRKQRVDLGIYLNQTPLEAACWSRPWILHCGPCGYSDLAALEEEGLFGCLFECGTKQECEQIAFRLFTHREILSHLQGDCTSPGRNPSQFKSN
# Sequence of MMP3 (P08254 100-477, species assumed): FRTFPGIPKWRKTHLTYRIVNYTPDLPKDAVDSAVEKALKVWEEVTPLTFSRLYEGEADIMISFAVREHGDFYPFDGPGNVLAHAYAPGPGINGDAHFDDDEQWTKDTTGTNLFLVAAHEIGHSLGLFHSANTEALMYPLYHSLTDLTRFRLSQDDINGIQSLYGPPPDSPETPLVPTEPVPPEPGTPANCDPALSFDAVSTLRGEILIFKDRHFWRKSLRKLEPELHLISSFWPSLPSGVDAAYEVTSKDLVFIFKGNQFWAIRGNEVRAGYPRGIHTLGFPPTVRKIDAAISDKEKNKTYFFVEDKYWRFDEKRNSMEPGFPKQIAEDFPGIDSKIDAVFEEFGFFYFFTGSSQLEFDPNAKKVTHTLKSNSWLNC
# Sequence of carboxylesterase (P23141 18-567): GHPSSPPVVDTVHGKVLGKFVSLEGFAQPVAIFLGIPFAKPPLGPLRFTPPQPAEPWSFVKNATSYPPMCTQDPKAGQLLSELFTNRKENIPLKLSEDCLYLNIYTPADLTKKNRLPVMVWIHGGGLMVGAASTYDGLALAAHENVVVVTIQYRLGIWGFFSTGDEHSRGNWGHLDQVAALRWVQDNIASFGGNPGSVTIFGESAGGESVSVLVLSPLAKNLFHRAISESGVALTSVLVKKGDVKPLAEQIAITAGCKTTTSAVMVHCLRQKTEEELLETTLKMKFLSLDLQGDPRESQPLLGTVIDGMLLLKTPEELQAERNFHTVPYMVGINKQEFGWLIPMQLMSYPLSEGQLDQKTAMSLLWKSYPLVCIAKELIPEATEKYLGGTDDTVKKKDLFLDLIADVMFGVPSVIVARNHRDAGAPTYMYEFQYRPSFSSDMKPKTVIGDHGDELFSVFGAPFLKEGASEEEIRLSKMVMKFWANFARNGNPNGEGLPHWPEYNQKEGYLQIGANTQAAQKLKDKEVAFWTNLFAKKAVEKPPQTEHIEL
# Sequence of MMP7 (P09237 95-267, species assumed): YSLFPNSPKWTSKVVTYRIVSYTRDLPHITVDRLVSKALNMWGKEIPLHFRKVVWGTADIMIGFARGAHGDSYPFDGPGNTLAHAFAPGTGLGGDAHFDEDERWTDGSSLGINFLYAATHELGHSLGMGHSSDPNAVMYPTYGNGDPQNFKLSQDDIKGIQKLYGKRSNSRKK
# Sequence of MMP9 (P14780 94-707, species assumed): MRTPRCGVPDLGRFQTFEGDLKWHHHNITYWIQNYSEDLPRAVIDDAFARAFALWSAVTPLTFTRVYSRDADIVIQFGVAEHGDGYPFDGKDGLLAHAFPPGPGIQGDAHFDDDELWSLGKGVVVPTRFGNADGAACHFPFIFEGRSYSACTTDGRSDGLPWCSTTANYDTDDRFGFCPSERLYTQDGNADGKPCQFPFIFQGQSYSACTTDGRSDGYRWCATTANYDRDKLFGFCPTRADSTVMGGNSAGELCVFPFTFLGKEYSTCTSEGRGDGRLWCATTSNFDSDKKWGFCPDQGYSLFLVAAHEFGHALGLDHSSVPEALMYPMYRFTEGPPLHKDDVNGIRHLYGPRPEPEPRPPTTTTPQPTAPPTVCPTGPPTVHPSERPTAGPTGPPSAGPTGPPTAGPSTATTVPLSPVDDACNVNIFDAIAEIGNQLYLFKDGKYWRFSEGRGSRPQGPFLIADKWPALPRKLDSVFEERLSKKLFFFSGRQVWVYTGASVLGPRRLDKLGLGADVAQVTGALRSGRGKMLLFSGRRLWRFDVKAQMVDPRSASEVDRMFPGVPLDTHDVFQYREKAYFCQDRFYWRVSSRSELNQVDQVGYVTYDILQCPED
compound,measurement,setting,value
"CC(=O)N[C@H]1[C@H]([C@H](O)[C@H](O)CO)OC(C(=O)O)=C[C@@H]1O [DANA, 2-deoxy-2,3-dehydro-N-acetylneuraminic acid]",inhibition of lipopolysaccharide (LPS) induced sialidase activity,Neu1 sialidase [1],limited effect
same,inhibition of the LPS-induced sialidase activity,Neu1 sialidase [2],limited significant inhibition
CC(=O)Oc1ccccc1C(=O)O [aspirin],reduction in Neu-1 activity,neuraminidase 1,substantial reduction
same,inhibition of mammalian neuraminidase 1 by aspirin together with OP,[3],potentiates the ability of OP to inhibit mammalian neuraminidase 1
"neuropeptide FF (FLFQPQRF; ends and bridges not checked; UniProt O15130 69-76, looked up) [MAS agonist]",expression of SEAP (reflective of NF-kB expression),[4],triggered increased expression of SEAP
"angiotensin-2: GPCR agonist, printed as 'angiotensin-1 and -2' (DRVYIHPF; Angiotensin-2; UniProt P01019 25-32, looked up)",induction of Neu1 activity,Neu1,induce Neu1 activity
"angiotensin 1-7 (DRVYIHP; Angiotensin 1-7; UniProt P01019 25-31, looked up)",induction of sialidase activity,"Neu1 sialidase [5]; FIG. 2A, agonist 20 μg/mL",induces Sialidase activity
same,expression of SEAP (reflective of NF-kB expression),[4],triggered increased expression of SEAP
"CCOC(=O)C1=C[C@@H](OC(CC)CC)[C@H](NC(C)=O)[C@@H](N)C1.O=P(O)(O)O [OP, (3R,4R,5S)-4-acetylamino-5-amino-3-(1-ethylpropoxy)1-cyclohexene-1-carboxylic acid, ethyl ester, phosphate (1:1)]",inhibition of sialidase (Neu1) activity associated with TLR ligand treated live macrophage cells,Neu1 sialidase [1],most potent; also recorded: potent inhibitor
same,inhibition of sialidase (Neu1) activity associated with TLR ligand treated live macrophage cells,Neu1 sialidase [1]; listed as oseltamivir phosphate,specifically inhibits
same,"block of TLR ligand induced NFkB activation, nitric oxide (NO) production and pro-inflammatory cytokines",[6],blocks
same,OP blockage of LPS-induced Neu1 sialidase activity after clopidogrel pretreatment,Neu1 sialidase [2]; BMC-2 cells pretreated with anti-carboxylesterase agent clopidogrel,not affected
same,inhibition of the LPS-induced sialidase activity,Neu1 sialidase [2],completely blocks
same,inhibition of sialidase activity triggered by recombinant S protein and LPS,Neu1 sialidase [5],blocked
same,inhibition of sialidase activity associated with S-protein,Neu1 sialidase [5],inhibited
same,inhibition of sialidase activity associated with S-protein (UK variant),Neu1 sialidase [5],inhibited
same,inhibition of endotoxin LPS induced NFκB activation and production of nitric oxide and pro-inflammatory IL-6 and TNFα cytokines,[7],significantly inhibited
same,inhibition of S-protein triggered activity by SEAP reporter assay,"[4]; FIG. 4C, S-protein 10 ug/mL, OP at indicated concentrations",significantly decreased; also recorded: inhibited sialidase activity in a dose dependent manner
same,solubility in water,[8],soluble in water
CNC(=O)[C@H](Cc1c[nH]c2ccccc12)NC(=O)[C@@H](CC(=O)NO)CC(C)C [Galardin],pIC50,MMP3,7.57
N[C@@H](CS)C(=O)N1CCn2cc(-c3ccccc3)nc2[C@@H]1CC1CCCCC1 [BIM-46174],inhibition of sialidase activity triggered by recombinant S protein and LPS,Neu1 sialidase [5],inhibited
same,inhibition of sialidase activity associated with S-protein,Neu1 sialidase [5],inhibited
same,inhibition of sialidase activity associated with S-protein (UK variant),Neu1 sialidase [5],inhibited
thrombin,induction of Neu1 activity,Neu1,not
CCC(CC)[C@H](NC(C)=O)[C@@H]1C[C@@H](C(=O)O)C[C@H]1N=C(N)N [BCX1827],inhibition of lipopolysaccharide (LPS) induced sialidase activity,Neu1 sialidase [1],limited effect
same,inhibition of the LPS-induced sialidase activity,Neu1 sialidase [2],limited significant inhibition
C1CNCCN1 [PIPZ],pIC50,MMP3,7.74
same,pIC50,MMP7,7.52
same,pIC50,MMP1,7.62
same,pIC50,MMP9,8.57
COC(=O)[C@H](c1ccccc1Cl)N1CCc2sccc2C1 [clopidogrel],inhibition of the hydrolysis of OP by carboxylesterase,carboxylesterase,≤ 90%
same,effect on OP's capacity to inhibit LPS induced sialidase activity,[9],no effect
CC(C)CCC[C@@H](C)[C@H]1CC[C@H]2[C@@H]3CC=C4C[C@@H](O)CC[C@]4(C)[C@H]3CC[C@]12C [cholesterol],induction of Neu1 activity,Neu1,induce Neu1 activity
CCN(CC)Cc1cc(C)c(N(Cc2ccccc2)S(=O)(=O)c2ccc(OC)cc2)c(C(=O)NO)c1 [MMP9 inhibitor],pIC50,MMP13,6.95
same,inhibition of sialidase activity associated with S-protein,Neu1 sialidase [5],inhibited
same,inhibition of sialidase activity associated with S-protein (UK variant),Neu1 sialidase [5],inhibited
same,pIC50,MMP1,5.98
"angiotensin-1 (DRVYIHPFHL; Angiotensin-1; UniProt P01019 25-34, looked up) [GPCR agonist]",induction of Neu1 activity,Neu1,induce Neu1 activity
lysophosphatidic acid,induction of Neu1 activity,Neu1,induce Neu1 activity
"CC(=O)N[C@H]1[C@H]([C@H](O)[C@H](O)CO)OC(C(=O)O)=C[C@@H]1N=C(N)N [zanamivir, 4-guanidino-Neu5Ac2en]",inhibition of lipopolysaccharide (LPS) induced sialidase activity,Neu1 sialidase [1],limited effect
same,inhibition of Neu3 sialidase activity,Neu3 sialidase,completely inhibited
same,inhibition of the LPS-induced sialidase activity,Neu1 sialidase [2],limited significant inhibition
same,inhibition of Neu1 sialidase activity,Neu1 sialidase [10],completely inhibited
same,inhibition of human Neu3 sialidase,human Neu3 sialidase,significantly inhibited

# Source: patent US12678418B2, “Compositions and methods for the treatment of threatened respiratory failure caused by coronavirus infection and disease” (ENCYT TECHNOLOGIES, INC., priority 2020, dated 2026)
